Reference: EPA's ToxValDB 9.5 (doi:10.2903/j.efsa.2010.1822)

Tests used:
Colinus virginianus = conditions: acute; oral; mortality
Coturnix japonica = conditions: reproduction developmental
Daphnia magna = conditions: chronic/long-term; duration: 21 days; reproduction
Hypoaspis aculeifer = conditions: chronic/long-term
Oncorhynchus mykiss = conditions: chronic/long-term; duration: 28 days; other
Apis mellifera = conditions: acute; duration: 48 hours; dermal; mortality
Canidae = conditions: chronic; duration: 52 weeks; oral; Dog Other; histopathology: nonneoplastic
Bibionidae = conditions: chronic/long-term; duration: 28 days
Lepomis macrochirus = conditions: acute; duration: 96 hours; mortality
Anas platyrhynchos = conditions: short-term; oral; feed; mortality
Aphidius rhopalosiphi = experiment: LR50; higher = less toxic; conditions: not reported; mortality

## COC(=O)[N-]S(=O)(=O)c1ccc(N)cc1.[Na+] [Asulam-sodium]
Colinus virginianus
  LD50: > 1830 mg/kg
Coturnix japonica
  NOAEC: 65 mg/kg-day
  NOEL: 19 mg/kg-day
Daphnia magna
  NOEC: 6.4 mg/L
Hypoaspis aculeifer
  NOEC: 4370 mg/kg
Oncorhynchus mykiss
  NOEC: 119 mg/L
Rattus norvegicus; acute, oral, mortality
  LD50: > 4560 mg/kg
Rattus norvegicus; chronic, duration: 2 years, hematological
  NOAEL: 36 mg/kg-day
Rattus norvegicus; reproduction developmental, reproduction
  NOEL: 46 mg/kg-day
Tagia sp.; acute, duration: 14 days, mortality
  LC50: 1000 mg/kg
Tagia sp.; chronic/long-term, duration: 56 days
  NOEC: 181 mg/kg
Apis mellifera
  LD50: > 100 µg/piece
Canidae
  NOAEL: 100 mg/kg-day
Bibionidae
  NOEC: 91.3 mg/L
Lepomis macrochirus
  LC50: > 91.3 µg/mL
Anas platyrhynchos
  LD50: > 22700 mg/kg-day
Aphidius rhopalosiphi
  LR50: 3090 mL/ha
